Results on five compounds are retold here after patent US5116995A, “Carbazole compounds” (Taisho Pharmaceutical Co., Ltd., priority 1990, dated 1992).

Structures are written as SMILES. Read-outs that look alike come from different tables or passages of the source.

Test [1] has as its target sigma receptor (Rattus norvegicus, UniProt Q9R0C9). The experiment in a line: biochemical.
Test [2] addresses D2 receptor (Rattus norvegicus, UniProt P61169). The experiment in a line: Receptor Binding Test: (-)-[3H]sulpiride binding, rat striatal membranes.
Test [3] deals with methamphetamine induced hyperlocomotion. In words: inhibition of Methamphetamine induced Hyperlocomotion. The class given is in vivo, mouse (male ICR). The following applies: mice, test drug 50 mg/kg i.p., 35 min before methamphetamine 1 mg/kg i.p.; measured for 30 min from 15 min later; **P < 0.01 (Dunnett's test). The method, then:
Thirty male ICR mice weighing 20 to 35 g were used for each group (5 animals per test, and 6 tests). Mice were placed in the measuring cages, adapted for 60 minutes, and given intraperitoneally the test drugs in Table 1 suspended in 5% gum arabic solution in a dose of 50 mg/kg (0.1 ml/10 g of the body weight). Thirty-five minutes later, methamphetamine dissolved in physiological saline solution was given intraperitoneally in a dose of 1 mg/kg. Fifteen minutes later, the locomotor content was measured for 30 minutes using an Animex apparatus. Control group was given 5% gum arabic only in a similar manner, and […] for measurement. Results are expressed as percentage to control group in Table 2.

For test [4], the target named is phencyclidine receptor. In words: Receptor Binding Test: [3H]phencyclidine binding, rat whole brain membranes. To be noted: rat whole brain membrane, 5 mM Tris-HCl pH 7.7, 25° C., 2 hours. On the set-up: species or system rat (male Wistar). The source says: 32, page 820 (1987), respectively.
Test [5] concerns the target phencyclidine receptor. The following applies: rimcazole value from literature (vol. 155, page 345 (1988)); cited from earlier work.
In test [6] the test system is sigma receptor. The following applies: cited from earlier work.
In test [7] the target is D2 receptor. To be noted: rimcazole value from literature (vol. 155, page 345 (1988)), [3H]spiporone binding; cited from earlier work.

Sequence of D2 receptor (Rattus norvegicus, UniProt P61169) (P61169 whole entry): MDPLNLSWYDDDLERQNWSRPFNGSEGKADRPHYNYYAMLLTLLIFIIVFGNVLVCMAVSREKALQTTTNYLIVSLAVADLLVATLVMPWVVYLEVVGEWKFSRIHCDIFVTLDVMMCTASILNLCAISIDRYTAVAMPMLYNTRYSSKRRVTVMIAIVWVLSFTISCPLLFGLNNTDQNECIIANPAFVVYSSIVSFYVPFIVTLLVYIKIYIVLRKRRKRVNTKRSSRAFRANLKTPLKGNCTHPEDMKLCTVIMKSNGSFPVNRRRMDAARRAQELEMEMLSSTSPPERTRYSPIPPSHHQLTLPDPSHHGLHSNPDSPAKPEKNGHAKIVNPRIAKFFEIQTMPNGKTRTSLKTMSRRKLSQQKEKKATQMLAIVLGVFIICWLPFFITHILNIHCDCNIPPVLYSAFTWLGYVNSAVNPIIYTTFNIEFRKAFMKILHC
Sequence of sigma receptor (Rattus norvegicus, UniProt Q9R0C9) (Q9R0C9 whole entry): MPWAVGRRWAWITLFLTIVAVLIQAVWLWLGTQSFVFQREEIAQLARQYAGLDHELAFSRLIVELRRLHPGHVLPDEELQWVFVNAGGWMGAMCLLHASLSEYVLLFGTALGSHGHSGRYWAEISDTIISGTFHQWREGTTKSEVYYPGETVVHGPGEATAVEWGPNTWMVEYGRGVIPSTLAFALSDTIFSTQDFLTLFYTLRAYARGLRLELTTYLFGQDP

A word on the IC50: it is the concentration that gives 50% inhibition. `CCCN1CCCC(c2cccc(O)c2)C1` (single isomer, unassigned) [3-PPP, 3-(3-hydroxy-phenyl)-N-n-propylpiperidine, reference compound] returned an IC50 in test [1] of 24.3 ± 2.9 nM.

In the case of `CCCN(CCC)Cc1cccc2[nH]c3ccccc3c12.Cl` [Test drug A, 4-(di-n-propylaminomethyl)carbazole hydrochloride], the IC50 in test [1] was 891 ± 12.8 nM; in test [2] it was 44.3 µM; in test [4], over 10 µM. In addition, the “locomotor count, % to control group” value in test [3] was 39.7%.

Take `CCCN(CCC)CCc1cccc2[nH]c3c(C)ccc(C)c3c12.Cl` [Test drug C, 5,8-dimethyl-4-(2-di-n-propylaminoethyl)carbazole hydrochloride]: the IC50 in test [1] is 4.8 ± 1 nM; in test [2], 14.3 µM; in test [4], over 10 µM. In addition, in test [3], the “locomotor count, % to control group” value was determined as 35.3%.

Turning to `CCCN(CCC)Cc1cccc2[nH]c3c(C)ccc(C)c3c12.Cl` [Test drug B, 5,8-dimethyl-4-(di-n-propylaminomethyl)carbazole hydrochloride], the IC50 in test [1] was 1020 ± 131 nM; in test [2], 23.2 µM; in test [4], over 10 µM. Also, the “locomotor count, % to control group” value in test [3] was 46.6%.

Consider `C[C@@H]1CN(CCCn2c3ccccc3c3ccccc32)C[C@H](C)N1` [Rimcazole], for which the IC50 in test [5] was over 2 mM; in test [6] (rimcazole value from literature (vol. 155, page 345 (1988))), 1460 ± 235 nM; in test [7], 86 µM. Further, the “affinity and specificity for sigma receptor” value in test [6] (prior art statement) is listed as “not sufficient”. Moreover, the “locomotor count, % to control group” value in test [3] stood at 51.4%.
